# Assay results reported in PubChem BioAssay (NCI).
#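 Five concentrations, 48 hours, 96-well plates. TGI denotes the concentration required for complete inhibition of growth.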
# Key:
# Assay in all cases: inhibition of tumour cell growth, NCI panel, 48 h
# 786-0 renal = system: 786-0 renal
# CAKI-1 renal = system: CAKI-1 renal
# HCC-2998 colon = system: HCC-2998 colon
# HCT-15 colon = system: HCT-15 colon
# HL-60(TB) leukemia = system: HL-60(TB) leukemia
# HS 578T breast = system: HS 578T breast
# NCI-H522 lung = system: NCI-H522 lung
# NCI/ADR-RES ovarian = system: NCI/ADR-RES ovarian
# SF-539 CNS = system: SF-539 CNS
# SN12C renal = system: SN12C renal
# U251 CNS = system: U251 CNS
Structure (SMILES),TGI (786-0 renal) [µM],TGI (CAKI-1 renal) [µM],TGI (HCC-2998 colon) [µM],TGI (HCT-15 colon) [µM],TGI (HL-60(TB) leukemia) [µM],TGI (HS 578T breast) [µM],TGI (NCI-H522 lung) [µM],TGI (NCI/ADR-RES ovarian) [µM],TGI (SF-539 CNS) [µM],TGI (SN12C renal) [µM],TGI (U251 CNS) [µM]
NCCCN(CCCCN(CCCN)CCCc1ccccc1)CCCc1ccccc1,2.91,4.94,2.99,4.24,7.44,4.66,7.17,43.1,3.55,16.9,4.19
CSc1c(C(C)=O)c(O)n(-c2ccc(C)cc2)c(=O)c1C#N,> 100,> 100,> 100,> 100,> 100,> 100,> 100,> 100,> 100,> 100,> 100
C=C1OC2OC(C)C(NC(=O)OCC(Cl)(Cl)Cl)C(OC(C)=O)C2O1 (centres undefined),> 100,> 100,> 100,> 100,> 100,> 100,> 100,> 100,> 100,> 100,> 100
CCOC(=O)C1=C(O)CC(=O)N=C1N1CCCC1,> 100,> 100,> 100,> 100,> 100,> 100,> 100,> 100,> 100,> 100,> 100
COc1ccc(OC)c2c(C(C)=O)cccc12,> 100,–,> 100,> 100,> 100,> 100,> 100,> 100,> 100,> 100,> 100
Cc1nn2c(=O)c([N+](=O)[O-])c(/C=C/c3ccc(F)cc3)nc2s1,20.9,27.9,16.4,16.5,18.1,28.6,18,25.1,17.9,21.2,14.6
CCOC(=O)c1ccc(N(CCOS(C)(=O)=O)CCOS(C)(=O)=O)cc1,–,29.1,> 100,> 100,> 100,> 100,41.1,> 100,62.1,–,> 100
CC1OC(OC2C(O)CC(OC3C(O)CC(OC4CCC5(C)C(CCC6C5CCC5(C)C(C7=CC(=O)OC7)C(O)CC65O)C4)OC3C)OC2C)CC(O)C1O (centres undefined),–,0.396,14.6,1.58,1.23,> 100,0.157,0.968,0.217,–,1.31
CNC(=O)OCc1cnc([N+](=O)[O-])n1C,> 100,> 100,> 100,> 100,> 100,> 100,> 100,> 100,> 100,> 100,> 100
O=C(O)CN1C(=O)c2ccc(NC(=O)C(=O)O)cc2S1(=O)=O,> 100,> 100,> 100,> 100,> 100,> 100,> 100,> 100,–,> 100,> 100
Nc1nc(Sc2ccc([N+](=O)[O-])c3nonc23)c2[nH]cnc2n1,3.18,5.74,7.93,14.1,4.86,62.5,2.44,25.4,14.8,27.2,21.7
O=c1cc(NNc2cccc3ccccc23)[nH]c(=O)[nH]1,18.6,28.5,35.6,24.8,7.99,68.7,28.7,40.9,29,29.9,28.3
CCCOC(=O)c1cc(O)c(O)c(O)c1,> 100,> 100,> 100,> 100,> 100,> 100,77,> 100,70.9,> 100,> 100
COc1cc2c(c(OC)c1OC)C(=O)c1c(O)cc(C)c(OC)c1C2=O,> 100,> 100,> 100,> 100,> 100,70.1,> 100,> 100,> 100,> 100,> 100
Clc1ccc(-c2cn3c(nc4ccccc43)c(-c3ccccc3)n2)cc1,15.2,32.1,> 100,> 100,> 100,66,43.3,> 100,> 69,> 100,25.3
CO[C@@]12C[C@H](CNC(=O)c3ccc[nH]3)O[C@@H]1NC(=O)N2,> 100,> 100,> 100,> 100,> 100,> 100,> 100,> 100,> 100,> 100,> 100
COCN1C(=O)[C@@H]2CCCN2C(=O)c2ccc(N)cc21,> 100,> 100,> 100,> 100,> 100,> 100,> 100,> 100,> 100,> 100,> 100
O=c1c(-c2nc3ccccc3c3ccccc3c2=O)nc2ccccc2c2ccccc12,> 100,> 100,68,> 100,58.5,> 100,> 100,> 100,55.3,99.1,60.3
Cc1sc(/N=C/C2=C(O)CC(C)(C)CC2=O)nc1-c1ccccc1,> 100,> 100,> 100,> 100,5.93,> 100,> 100,> 100,> 100,> 100,> 100
CC(=O)OCC1OC(OCCCOP(=O)(OCCC#N)OCC2OC(n3cnc4c(N)ncnc43)C(OC(=O)c3ccccc3)C2OC(=O)c2ccccc2)C(OC(C)=O)C(OC(C)=O)C1OC(C)=O (centres undefined),> 100,> 100,> 100,> 100,> 100,> 100,> 100,> 100,> 100,> 100,> 100
